Assays:
normal C57BL/6J mice = assay: Induction of small β-cell clusters in normal C57BL/6J mice (islet size distribution); assay type: in vivo, mouse
Experimental: After a 1-week acclimation, C57BL/6J female mice were randomly divided into 4 groups. The two control groups received either 10 mL/kg sterile normal saline (n=4) or scrambled peptide (Peptide 3, 25 mg/kg) (n=5) via subcutaneous injection for 10 days. The other two groups received INGAP-PP (Peptide 1) or INGAP-PP analog Peptide 7 at a dose of 25 mg/kg per day respectively (n=7 per group) for the same period. Body weight and 6 hour fasting blood glucose were measured before treatment and after the last dosing of treatment. Plasma and pancreatic insulin were also measured at the end of the study. On day 11, the pancreas was removed from each animal, cleared of fat and lymph nodes, weighed, and fixed in 10% neutral buffered formalin (NBF) for no longer than 24 hours before processing for morphometric analysis.
Immunohistochemistry analysis was used to determine pancreatic islet size distribution.

ARIP cells = assay: ARIP cell proliferation (BrdU ELISA / CellTiter-Glo); assay type: cell-based, rat; settings: 100 nM peptide; compared to INGAP scrambled peptide and INGAP-PP; FIG. 1
Experimental: To measure cell proliferation, a bromodeoxyuridine (BrdU) ELISA assay was performed. Briefly, ARIP cells (ATCC (American Type Culture Collection), Manassas Va. USA), a rat pancreatic ductal cell line, were cultured in F-12K medium (Gibco-BRL, Gaithersburg, Md., USA) containing 10% fetal bovine serum (FBS; HyClone, Thermo Fisher Scientific Inc.; Waltham Mass. USA), 100 μg/ml streptomycin and 100 μg/ml penicillin in a cell incubator. ARIP cells were seeded into 96-well culture plates at 8000 or 0 (as blank control) cells/well in a volume of 50 μl cell culture medium and incubated overnight for the following experiments. On the second day, after replacing the medium with medium without serum, 50 μl serum-free cell culture medium containing test peptides at a series concentrations (final concentrations were 10 μM, 5 μM, 1 μM, 500 nM, 100 nM, 50 nM, 10 nM and 1 nM) were added to seeded cells. Medium without compound was added to negative control and background control wells. […] The absorbance at 450 nm (reference wavelength 690 nm) on an EnVision™ plate reader (Perkin Elmer, Boston Mass.) within 5 min after adding the stop solution was measured.
To test for cell viability, a CellTiter-Glo™ (CTG) assay (Promega, Madison Wis.) was performed. […] Luminescence signal was quantified on an EnVision™ plate reader after a 10 minute incubation at room temperature.

[1] = tested on: STZ induced diabetic mice; assay: Efficacy in streptozotocin (STZ) induced diabetic mice model; assay type: in vivo, mouse
Experimental: After acclimatization in the animal facility for one week, 6-8 weeks old C57BL/6J mice were administered low dose STZ at 40 mg/kg in citrate buffer for 5 consecutive days to establish a T1D animal model. Mice with blood glucose greater than 16.7 mmol/L at 5 days post last STZ injection were included in the study. These mice were then treated with INGAP-PP (Peptide 1) or Peptide 7 at the doses of 5 mg/kg (2.5 mg/kg, bid (twice a day)) or 25 mg/kg (12.5 mg/kg, bid) for 20 days before sacrifices. Two additional groups of diabetic mice were administered either saline or a peptide (Peptide 3) composed of a scrambled sequence of amino acids from Peptide 1 as control groups. Blood glucose and insulin levels were measured, and 20 days post the last dosing of test agents, an oral glucose tolerance test (OGTT) was performed in 6 hour fasted animals to determine the effect of Peptide 1 and Peptide 7. Blood samples obtained from the tail cut for glucose determination were detected with an ACCU-CHEK™ glucometer (Roche, ACCU-CHEK® Active), and insulin levels were determined with Rat/Mouse Insulin Elisa kit (Millipore, Billerica, Mass. USA). For the OGTT, after the measurement of the basal glucose concentration (T=−30 min), mice received an oral glucose challenge at 2 g/kg and glucose values were determined by glucometer at 0, 15, 30, 60, 90 and 120 min.

[2] = Peptide stability in culture medium (F-12K, 37° C., HPLC); assay type: physicochemical; settings: F-12K medium, 0.25 mg/mL, 0-72 hours, FIG. 2, FIG. 11
Experimental: To determine the stability of peptides in culture medium, a certain amount of selected peptides was accurately weighed and dissolved in distilled water to 5 mg/mL as a stock solution. The stock solution was diluted to 0.25 mg/mL with F-12K medium (Gibco-BRL, Gaithersburg, Md., USA) as working solution. A volume of 100 μL of each working solution was transferred into individual sample vials. The sample vials were incubated in a 37° C. incubator for 0, 24, 48 and 72 hours before being analyzed and quantitated by HPLC. […]

## H-IGLHDPSHGTLPAGS-OH [Peptide 7, H-IGLHDPSHGTLPAGS-OH]
Normal C57BL/6J mice; normal female C57BL/6J mice, 25 mg/kg per day, 10 days, versus naive/control group, FIG. 7
  number of islets, islet size (Log [μm^2]) ranging from 2.1 to 0.7: numbers increased significantly
Normal C57BL/6J mice; normal mice, 25 mg/kg per day sc for 10 days, compared to saline group
  effect on body weight, blood glucose, plasma insulin, pancreas insulin, pancreas weight: did not affect body weight, blood glucose, plasma insulin, pancreas insulin, or pancreas weight
ARIP cells
  percentage increase in cell number (ARIP cell proliferation): significantly higher percentage increase in cell number
[1]; 5 mg/kg or 25 mg/kg for 20 days
  effect on body weight or pancreas weight: did not affect body weight or pancreas weight
[1]; 25 mg/kg dose group, end of the 20-day period, FIG. 6B
  plasma insulin levels vs saline controls: significantly different from saline controls and almost restored to the level of the naive group
[1]; FIG. 6C
  glucose tolerance (OGTT, AUC of glucose): improved glucose tolerance
[1]; day 21 of treatment, FIG. 6A
  blood glucose levels vs saline control group: Significant differences in blood glucose levels
[2]
  stability in culture medium: significantly more stable than INGAP-PP peptide in culture medium

Source: US9388215B2, “Compositions and methods of using islet neogenesis peptides and analogs thereof” (SHENZHEN HIGHTIDE BIOPHARMACEUTICAL, LTD., priority 2013, dated 2016)
